This experiment deals with Catenin beta-1/Transcription factor 7-like 2 (Homo sapiens, UniProt P35222+Q9NQB0). Put plainly: Inhibition of human TCF4/ flag epitope-tagged beta-catenin (unknown origin) interaction transfected in human HCT116 cells after 24 hrs by beta-galactosidase/luciferase reporter gene assay. For orientation: In a reporter assay the amount or activity of a reporter protein is the signal.

Structures are written as SMILES.

What is called IC50 is the concentration that gives 50% inhibition. Low readings indicate greater potency in that assay, high ones weaker potency in that assay.

Sequence of Catenin beta-1/Transcription factor 7-like 2 (P35222 whole entry): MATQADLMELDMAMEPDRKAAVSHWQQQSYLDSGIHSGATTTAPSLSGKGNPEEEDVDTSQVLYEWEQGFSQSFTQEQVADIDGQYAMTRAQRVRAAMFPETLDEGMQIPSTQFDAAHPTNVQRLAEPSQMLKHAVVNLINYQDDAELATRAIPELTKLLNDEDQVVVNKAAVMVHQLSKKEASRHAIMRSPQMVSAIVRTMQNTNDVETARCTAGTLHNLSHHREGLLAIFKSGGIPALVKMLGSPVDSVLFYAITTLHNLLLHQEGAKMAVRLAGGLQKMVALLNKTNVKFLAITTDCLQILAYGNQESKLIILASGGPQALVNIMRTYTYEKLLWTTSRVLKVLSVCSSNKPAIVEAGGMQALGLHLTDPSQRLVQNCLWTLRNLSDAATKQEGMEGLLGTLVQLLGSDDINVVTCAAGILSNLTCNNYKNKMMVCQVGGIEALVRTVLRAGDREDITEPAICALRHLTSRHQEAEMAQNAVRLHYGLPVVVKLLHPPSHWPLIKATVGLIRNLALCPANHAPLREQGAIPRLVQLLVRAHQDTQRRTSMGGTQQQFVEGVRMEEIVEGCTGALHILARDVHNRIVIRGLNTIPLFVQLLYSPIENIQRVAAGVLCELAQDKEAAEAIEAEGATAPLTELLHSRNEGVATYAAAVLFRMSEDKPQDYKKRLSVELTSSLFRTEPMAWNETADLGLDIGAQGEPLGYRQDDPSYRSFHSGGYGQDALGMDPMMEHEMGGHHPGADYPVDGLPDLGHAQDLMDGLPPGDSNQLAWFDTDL
Sequence of Catenin beta-1/Transcription factor 7-like 2 (Q9NQB0 whole entry): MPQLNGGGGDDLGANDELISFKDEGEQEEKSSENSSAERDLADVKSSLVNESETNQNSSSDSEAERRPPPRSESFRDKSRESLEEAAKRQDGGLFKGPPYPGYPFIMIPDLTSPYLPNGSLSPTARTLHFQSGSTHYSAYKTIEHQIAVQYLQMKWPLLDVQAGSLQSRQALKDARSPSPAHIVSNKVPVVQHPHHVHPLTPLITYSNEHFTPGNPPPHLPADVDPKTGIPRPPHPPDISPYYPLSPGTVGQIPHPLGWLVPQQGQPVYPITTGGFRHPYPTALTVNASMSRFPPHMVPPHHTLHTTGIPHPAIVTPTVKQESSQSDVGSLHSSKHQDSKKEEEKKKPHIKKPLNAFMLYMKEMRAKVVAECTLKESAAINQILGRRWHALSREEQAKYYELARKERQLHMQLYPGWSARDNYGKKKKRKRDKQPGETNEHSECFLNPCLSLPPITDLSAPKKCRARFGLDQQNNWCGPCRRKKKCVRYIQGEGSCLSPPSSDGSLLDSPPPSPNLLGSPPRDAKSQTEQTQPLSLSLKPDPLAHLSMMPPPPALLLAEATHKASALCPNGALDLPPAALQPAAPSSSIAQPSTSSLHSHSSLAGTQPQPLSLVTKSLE

Molecule `Cn1nc(-c2ccc(Cl)cc2)nc2c(=O)n(C)c(=O)nc1-2` [3-(4-Chloro-phenyl)-1,6-dimethyl-1H-pyrimido[5,4-e][1,2,4]triazine-5,7-dione] gave an IC50 of 300 nM.

Values taken from BindingDB's records for doi:10.1016/j.bmcl.2013.08.111 (University of Michigan, 2013).
